Laboratory results: US6518401B2, “Tumor necrosis factor stimulated gene 6 (TSG-6) protein” (New York University, priority 1991, dated 2003)

Columns and labels:
[1] = Stability of the TSG-6/IαI complex to denaturants and enzymes; type: physicochemical
Protocol: 100 μL of a TN-5 B insect cell culture supernatant containing TSG-6 protein was incubated with 100 μL of a 1:50 dilution of human serum for 1 hr. at 37° C. Thereafter, one 100-μL aliquot was mixed with 2 mL of 8 M urea and concentrated in a Centricon-10 unit to 100 μL (lane 2); the other aliquot was left untreated (lane 1). The reaction mixtures were then separated by SDS-PAGE and subjected to Western blot analysis with anti-TSG-6 antibody.
Partially purified IαI was incubated in the absence (lane 1) or presence of purified TSG-6 protein (lanes 3-5) at 37° C. for 1 hr. The sample containing both IαI and TSG-6 protein was divided into aliquots and further incubated without enzyme (lane 3), with 800 milliunits of chondroitin sulfate ABC lyase (lane 4), or with 1.6 units of hyaluronidase (lane 5). Lane 2 is a TSG-6 control without IαI. The reaction mixtures were separated by SDS-PAGE and analyzed by Western blotting with anti-TSG-6 antibody.
The Stable Crosslink in the TSG-6/IαI COmplex is Provided by a Gylcosaminoglycan Chain. The stability of the 120 kDa TSG-6/IαI complex during SDS-PAGE under reducing conditions raises the question of the nature of the interaction between TSG-6 and the other components of the complex.
It is known that the three polypeptide chains of IαI are cross-linked by a chondroitin sulfate chain (Enghild et al, J. Biol. Chem. 264:15975-15981 (1989); Jenssen et al, FEBS Lett. 230:195-200 (1988); Balduyck et al, Biol. Chem. Hoppe-Seyler 370:329-336 (1989). It has been shown that bikunin, HC2 of IαLI, and HC3 of pre-α-inhibitor (PαI) are covalently bound to chondroitin 4-sulfate (Enghild et al, J. Biol. Chem. 264:15975-15981 (1989); J. Bio. Chem. 266:747-751 (1991); J. Biol. Chem. 268:8711-8716 (1993). To determine if cross-linking via chondroitin sulfate is also required for the stability of the TSG-6/IαI complex, purified TSG-6 protein and IαI were first incubated together to allow the formation of the complex and then treated with chondroitin sulfate ABC lyase from Proteus vulgaris or hyaluronidase from Streptomyces hyalurolyticus.

[2] = tested on: TSG-27 (Stromelysin) mRNA; assay: Northern blot analysis of TSG mRNA levels in FS-4 cells; type: cell-based, human; details: growth arrested FS-4 cells, 16 h of treatment; TNF 20 ng/ml, CHX 10 ug/ml, IFN-β 500 U/ml, IFN-γ 100 U/ml, IL-1-α 1 ng/ml, EGF 25 ng/ml, TGF-β 2 ng/ml, poly(I).poly(C) 50 ug/ml, TPA 100 ng/ml, forskolin 10 uM, IBMX 100 uM
Protocol: (§1) The human diploid FS-4 foreskin fibroblast cell line (Vilcek, J. et al, Proc. Natl. Acad. Sci. USA 70:3909-3913 (1973)) was used at passage level 15 in all experiments. FS-4 cells were grown in Eagle minimal essential medium (E-MEM) supplemented with 6 mM HEPES, 3 mM Tricine, 50 μg/ml gentamicin, and 5% heat inactivated (56° C., 30 min) fetal bovine serum (FBS; GIBCO Laboratories, Grand Island, N.Y.). For experiments, 4×10^6 cells were seeded in 175 cm^2 Falcon flasks, incubated at 37° C., and allowed to grow to confluence over 6 days. The confluent monolayers were washed once with phosphate buffered saline and replenished with E-MEM containing […] FBS. The cultures were incubated in this medium for another 72 h at 37° C. to let the cells become quiescent and then treated with the appropriate agents, as specified herein.
(§2) Cytoplasmic RNA was fractionated on a 1% agarose gel containing formaldehyde and blotted onto Zeta-probe blotting membranes (Bio-Rad Laboratories, Richmond, Calif.). Cytoplasmic RNA was loaded at 10 μg/lane. Prehybridization and hybridization of Northern blots were performed as described (Lin, J.-X. et al, supra). Filters were probed with 32P-labeled cDNA insert from recombinant M13 clones and/or with 32P-labeled internal reference pHe7 insert. Northern blots were quantified with a laser densitometer.
(§3) The increase in mRNA levels ranged from about 3-fold (TSG-21) to over 100-fold (TSG-6 and TSG-8).
(§4) Table 3 provides a summary of a large number of experiments in which levels of mRNAs corresponding to the 8 distinct TSG cDNAs were determined in FS-4 cells exposed to various agents by Northern blot analysis. Three of the mRNAs (corresponding to TSG-8, TSG-12 and TSG-14) were inducible by the protein synthesis inhibitor, cycloheximide (CHX). […] In contrast, induction of the remaining 3 mRNAs by TNF was inhibited or reduced in the presence of CHX. Five of the mRNAs were inducible by IFN-β, but only two of these responded to […]. Simultaneous treatment with IFN-β reduced inducibility of TSG-1 (=IL-8) mRNA by TNF, but increased the inducibility of TSG-6 and TSG-37 mRNAs. All mRNAs were inducible by IL-1 and by the doublestranded RNA poly(I)-poly(C) or the phorbol ester 12-O-tetradecanoyl phorbol 13-acetate (TPA), but the efficiency of induction by these agents varied. Epidermal growth factor (EGF) was moderately efficient in increasing TSG-21 (=collagenase) and TSG-27 (=stromelysin) mRNA levels, and weakly stimulated several other mRNAs. PDGF and transforming growth factor-β (TGF-β) were only weakly effective, as were dibutyryl cyclic AMP (dBcAMP) and the phosphodiesterase inhibitor, isobutyl methyl xanthine (IBMX).

[3] = tested on: TSG-37 (MT-II) mRNA; assay: as above; type: cell-based, human; details: growth arrested FS-4 cells, 2 h; TNF 20 ng/ml, CHX 10 ug/ml, IFN-β 500 U/ml, IFN-γ 100 U/ml, IL-1-α 1 ng/ml, EGF 25 ng/ml, TGF-β 2 ng/ml, poly(I).poly(C) 50 ug/ml, TPA 100 ng/ml, A23187 1 uM, forskolin 10 uM, dBcAMP 100 uM, IBMX 100 uM
Protocol: as §1, §2, §3, §4

[4] = tested on: TSG-21 (Collagenase) mRNA; assay: as above; type: cell-based, human; details: growth arrested FS-4 cells, 16 h of treatment; TNF 20 ng/ml, CHX 10 ug/ml, IFN-β 500 U/ml, IFN-γ 100 U/ml, IL-1-α 1 ng/ml, EGF 25 ng/ml, TGF-β 2 ng/ml, poly(I).poly(C) 50 ug/ml, TPA 100 ng/ml, forskolin 10 uM, IBMX 100 uM
Protocol: as §1, §2, §3, §4

[5] = tested on: TSG-14 mRNA; assay: as above; type: cell-based, human; details: growth arrested FS-4 cells, 2 h; TNF 20 ng/ml, CHX 10 ug/ml, IFN-β 500 U/ml, IFN-γ 100 U/ml, IL-1-α 1 ng/ml, EGF 25 ng/ml, TGF-β 2 ng/ml, poly(I).poly(C) 50 ug/ml, TPA 100 ng/ml, A23187 1 uM, forskolin 10 uM, dBcAMP 100 uM, IBMX 100 uM
Protocol: as §1, §2, §3, §4

[6] = tested on: TSG-8 (MCAF) mRNA; assay: as above; type: cell-based, human; details: growth arrested FS-4 cells, 2 h; TNF 20 ng/ml, CHX 10 ug/ml, IFN-β 500 U/ml, IFN-γ 100 U/ml, IL-1-α 1 ng/ml, EGF 25 ng/ml, TGF-β 2 ng/ml, poly(I).poly(C) 50 ug/ml, TPA 100 ng/ml, A23187 1 uM, forskolin 10 uM, dBcAMP 100 uM, IBMX 100 uM
Protocol: as §1, §2, §3, §4

[7] = tested on: TSG-6 mRNA; assay: as above; type: cell-based, human; details: growth arrested FS-4 cells, 2 h; TNF 20 ng/ml, CHX 10 ug/ml, IFN-β 500 U/ml, IFN-γ 100 U/ml, IL-1-α 1 ng/ml, EGF 25 ng/ml, TGF-β 2 ng/ml, poly(I).poly(C) 50 ug/ml, TPA 100 ng/ml, A23187 1 uM, forskolin 10 uM, dBcAMP 100 uM, IBMX 100 uM
Protocol: as §1, §2, §3, §4

[8] = tested on: TSG-1 (IL-8) mRNA; assay: as above; type: cell-based, human; details: growth arrested FS-4 cells, 2 h; TNF 20 ng/ml, CHX 10 ug/ml, IFN-β 500 U/ml, IFN-γ 100 U/ml, IL-1-α 1 ng/ml, EGF 25 ng/ml, TGF-β 2 ng/ml, poly(I).poly(C) 50 ug/ml, TPA 100 ng/ml, A23187 1 uM, forskolin 10 uM, dBcAMP 100 uM, IBMX 100 uM
Protocol: as §1, §2, §3, §4

[9] = tested on: TSG-12 mRNA; assay: as above; type: cell-based, human; details: growth arrested FS-4 cells, 2 h; TNF 20 ng/ml, CHX 10 ug/ml, IFN-β 500 U/ml, IFN-γ 100 U/ml, IL-1-α 1 ng/ml, EGF 25 ng/ml, TGF-β 2 ng/ml, poly(I).poly(C) 50 ug/ml, TPA 100 ng/ml, A23187 1 uM, forskolin 10 uM, dBcAMP 100 uM, IBMX 100 uM
Protocol: as §1, §2, §3, §4

Compound | stability of the 120-kDa complex to 8 M urea ([1]; 8 M urea added before SDS-PAGE) | stability of the complex to boiling in 2% SDS and 5% β-mercaptoethanol ([1]; SDS-PAGE under reducing conditions) | effect of chondroitin sulfate ABC lyase on the complex ([1]; preformed complex treated with chondroitin sulfate ABC lyase from Proteus vulgaris) | effect of hyaluronidase on the complex ([1]; preformed complex treated with hyaluronidase from Streptomyces hyalurolyticus) | stability of the complex to 8 M guanidine hydrochloride ([1]; treatment with 8 M guanidine hydrochloride, Western blot) | Relative Increase in mRNA Level TSG-27 (Stromelysin) [2] | Relative Increase in mRNA Level TSG-37 (MT-II) [3] | Relative Increase in mRNA Level TSG-21 (Collagenase) [4] | Relative Increase in mRNA Level TSG-14 [5] | Relative Increase in mRNA Level TSG-8 (MCAF) [6] | Relative Increase in mRNA Level TSG-6 [7] | Relative Increase in mRNA Level TSG-1 (IL-8) [8] | Relative Increase in mRNA Level TSG-12 [9]
TSG-6/IαI complex: stable 120 kDa complex containing TSG-6 protein, bikunin and HC2 of IαI | did not affect | resistance | complete disappearance of the complex | no effect | still detectable |  |  |  |  |  |  |  | 
C[C@@H]1C[C@@H]([C@H](O)CC2CC(=O)NC(=O)C2)C(=O)[C@@H](C)C1 [CHX, cycloheximide] |  |  |  |  |  | 0 | 0 | 0 | + | + | 0 | 0 | +++
TGF-β |  |  |  |  |  | 0 | 0 | 0 | 0 |  | 0 | 0 | 0
CNc1ccc2oc(C[C@H]3O[C@@]4(CC[C@H]3C)O[C@H]([C@H](C)C(=O)c3ccc[nH]3)[C@H](C)C[C@H]4C)nc2c1C(=O)O [A23187] |  |  |  |  |  |  | 0 |  | 0 | ++ | + | + | ++
PDGF |  |  |  |  |  | 0 | 0 | 0 | + | + | 0 | 0 | +
EGF: Epidermal growth factor |  |  |  |  |  | ++ | + | ++ | + | + | 0 | 0 | +
CCCCCCCCCCCCCC(=O)O[C@@H]1[C@@H](C)[C@@]2(O)[C@@H](C=C(CO)C[C@]3(O)C(=O)C(C)=C[C@@H]23)[C@@H]2C(C)(C)[C@]12OC(C)=O [TPA, 12-O-tetradecanoylphorbol 13-acetate] |  |  |  |  |  | ++++ | + | ++++ | + | ++ | + | + | ++
CCCC(=O)Nc1ncnc2c1ncn2[C@@H]1O[C@@H]2COP(=O)(O)O[C@H]2[C@H]1OC(=O)CCC [dBcAMP, N^6-2′-O-dibutyl adenosine cyclic 3′,5′-monophosphate] |  |  |  |  |  |  |  |  | 0 | + | 0 | 0 | +
IFN-γ: E. coli-derived human gamma interferon |  |  |  |  |  | 0 | 0 | 0 | 0 | ++ | 0 | 0 | +
C=C[C@@]1(C)CC(=O)[C@]2(O)[C@@]3(C)[C@@H](O)CCC(C)(C)[C@@H]3[C@H](O)[C@H](OC(C)=O)[C@@]2(C)O1 [Forskolin, forskolin] |  |  |  |  |  | 0 | 0 | 0 | 0 | 0 |  | 0 | 0
